Assays:
[1] = test system: mouse β-cell line βTC6-F7; conditions: permanent mouse β-cell line βTC6-F7; ref [8] Buchanan et al.; cited from earlier work
Source text: Cheng et al. observed an increase in insulin secretion at a glucose concentration of 25 mmol/l and Buchanan et al. used 10 mmol/l.

[2] = test system: intracellular calcium in U-2 OS osteoblasts; experiment: Changes in intracellular calcium, U-2 OS osteoblasts; assay type: cell-based, human; conditions: U-2 OS cells; 10^−4 M; Fluo-8 fluorescence, (Fmax−F0)/F0; one-way ANOVA
Method: The day before the experiment, U-2 OS, MC3T3-E1, MIN6 and cAMP-HEK cells were seeded 6 000 (for osteoblastic cell lines U-2 OS, MC3T3-E1), 10 000 (for cAMP-HEK cells) or 30 000 (MIN6) cells per well in a black 384-well format micro plate with transparent bottom (Cat.#: 142761, Nunc, Thermo Fisher Scientific, USA). On the next day, the cultivation media was exchanged for assay buffer, consisting of HBSS (Cat.#: H6648-500ML, Sigma-Aldrich, Merck, Germany), 20 mM HEPES (Cat.#: L0180-100, Biowest, France), 2.5 mM Probenecid (Cat.#: P8761, Sigma-Aldrich, Merck, Germany), adjusted for pH 7.4 and supplemented with 4.77 μM CalciFluor™ Fluo-8, AM (Cat.#: 1345980-40-6, Santa Cruz Biotechnology, USA). After 45 min incubation with assay buffer in 37°C and 5% CO2, the cells were incubated at RT in a dark place for another 15 minutes. After this time, preptin and its analogs were added by the Agilent Bravo Automated Liquid Handling Platform (Agilent Technologies, USA). The kinetics were measured by the Spark® multimode reader from Tecan (Tecan Group Ltd., Switzerland) for 10 min (approximately 45 cycles, excitation 485 nm, emission 535 nm, band width 10 nm). Before each kinetics, the background fluorescence (F0) was measured and the result was calculated as (Fmax−F0)/F0, where Fmax corresponds to the maximum response upon stimulation by the compounds. Each compound was tested in concentration 10^−4 M.

[3] = test system: MIN6 pancreatic beta cells; experiment: Stimulation of insulin secretion, radioimmunoassay; assay type: cell-based, mouse; conditions: basal glucose 10 mmol/l, various, very high concentrations of preptin, 1 h at 37°C, RIA
Method: MIN6 cells were seeded at a density of 100 000 cells/well in 24-well culture dishes and grown for 3 days in 1 ml of complete medium. Before experiments, cells were maintained for 2 h in a glucose-free medium. Thereafter, the cells were washed twice and preincubated for 2 h at 37°C in 0.4 ml glucose-free Krebs-Ringer bicarbonate HEPES (KRBH) buffer of the following composition: 120 mM NaCl, 4.6 mM KCl, 2 mM CaCl2, 5 mM NaHCO3, 1 mM MgSO4, 0.4 mM KH2PO4, 0.15 mM Na2HPO4, BSA (0.2 % w/v), and 20 mM HEPES with pH value adjusted to 7.4 with NaOH. Next, the buffer was removed from cells and a new portion of 0.4 ml of glucose-free KRBH buffer, but with a respective concentration of glucose and/or preptin, was added to the cells, which were incubated for 1 h at 37°C. The cells were stimulated with various concentrations of D-glucose (0 and 10 mM) and the effects of various concentrations of mouse preptin were determined for 10 mM D-glucose concentration. After the stimulation, supernatants were collected from the cells and stored at −80°C before the measurement of insulin concentration.
Radioimmunoassay (RIA) kits for the measurement of rat insulin (sensitive Rat Insulin RIA Kit, Cat. # SRI-13K) content in samples were provided by EMD Millipore Corporation and were used according to the manufacturer’s instructions. Each biological sample was measured in duplicate.

hBMSC-TERT [4] = experiment: Osteoblast differentiation of hBMSC-TERT, alkaline phosphatase (ALP) activity assay; assay type: cell-based, human; conditions: summary in the conclusions
Method: (§1) hBMSC-TERT were plated at a density of 20 000 cells/cm^2 (Alizarin Red S staining) and 5 000 cells/well (ALP activity assay) in MEM medium (Gibco), supplemented with 10 % FBS (Gibco) and 1 % P/S (Gibco). One day after seeding, the medium was replaced with OB induction medium, composed of basal medium, supplemented with 10 mM B-glycerophosphate (Sigma-Aldrich), 10 nM dexamethasone (Sigma-Aldrich), 50 μg/mL vitamin C (Sigma-Aldrich), 10 nM vitamin D3 (Sigma-Aldrich) and treated with 100 ng/ml, 500 ng/ml and 1 ug/ml IGF2, IGF1, IGF2, preptin or vehicle (acetic acid) as a control. The medium was changed every other day for 7 days (ALP activity assay) or 10 days (Alizarin Red S staining).
ALP activity and cell viability assay were quantified at Day 7 of OB differentiation, in order to normalize the ALP activity data to the number of viable cells.
Cell viability assay was measured using a Cell Titer-Blue Assay Reagent (Promega) at fluorescence intensity (579Ex/584Em). ALP activity was detected by absorbance at 405 nm, using p-nitrophenyl phosphate (Sigma-Aldrich) as substrate.

hBMSC-TERT [5] = experiment: Osteoblast differentiation of hBMSC-TERT, Alizarin Red S staining; assay type: cell-based, human; conditions: increasing concentrations; day 10 of OB differentiation; compared to effects of IGF2 and preptin
Method: as §1
Mineralized matrix formation at Day 10 of OB differentiation was measured, using Alizarin Red S staining. Cells were fixed with 70 % ice-cold ethanol for 1 h at -20°C, before addition of Alizarin Red S Solution (AR-S) (Sigma-Aldrich). The cells were stained for 10 min at room temperature (RT). Excess dye was washed with distilled water and with phosphate buffered saline (PBS) (Gibco) to reduce nonspecific AR-S stain.

[6] = test system: human primary osteoblasts; conditions: 8 days, ref [17] Bosetti et al.; cited from earlier work

Substance: DVSTSQAVLPDDFPRYPVGKFFKFDTWRQSAGRL [peptide 19, native rat preptin]
- increase of insulin secretion [1]: able to increase insulin secretion
- changes in intracellular calcium relative to non-stimulated cells [2]: significant increase in intracellular calcium levels

Substance: DVSTSQAVLPDDFPRYPVGKFFQYDTWRQSAGRL [peptide 14, native mouse preptin]
- stimulation of insulin secretion [3]: did not observe a significant increase in insulin secretion

Substance: IGF1: insulin-like growth factor 1, comparator hormone
- osteoblast differentiation of hBMSCs (hBMSC-TERT [4]): only significant changes observed for IGF1
- Alizarin S staining of calcified matrix (hBMSC-TERT [5]): largest changes
- change in ALP activity [6]: only significant change in ALP activity

From article PMC11392399, “The final walk with preptin” (PLOS ONE, 2024)
